Consider four compounds from ChEMBL document CHEMBL4482313, “Method and compounds for inhibition of cell death” (2012).

Activity calls are given as the source filed them. The calls are words filed in the database; no cut-off is given here.

The target in data set [1] is T1, Serine protease HTRA2, mitochondrial (Homo sapiens) (UniProt O43464).
T1 sequence (whole entry): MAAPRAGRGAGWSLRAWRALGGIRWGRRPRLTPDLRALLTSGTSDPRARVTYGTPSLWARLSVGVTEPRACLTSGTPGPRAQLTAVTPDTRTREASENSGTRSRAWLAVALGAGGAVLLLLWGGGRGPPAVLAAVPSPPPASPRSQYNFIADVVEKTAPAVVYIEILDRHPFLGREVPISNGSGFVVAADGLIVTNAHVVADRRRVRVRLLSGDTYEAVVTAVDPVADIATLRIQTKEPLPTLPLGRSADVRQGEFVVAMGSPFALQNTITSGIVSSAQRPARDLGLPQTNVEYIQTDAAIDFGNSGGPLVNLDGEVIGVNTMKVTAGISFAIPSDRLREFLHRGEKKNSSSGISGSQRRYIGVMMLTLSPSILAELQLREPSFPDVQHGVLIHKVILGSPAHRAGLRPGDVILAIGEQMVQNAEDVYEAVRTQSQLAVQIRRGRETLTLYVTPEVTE
Briefly: Irreversible inhibition of MBP-fused Omi/HtrA2 (134 to 458 residues) (unknown origin) expressed in TB1 Escherichia coli at 20 to 100 uM pre-incubated for 40 mins to 1 hr before FITC-labeled dephosphorylated casein substrate addition and measured every 5 mins for 30 mins by fluorescence assay.

Data set [2] has as its target T1, Serine protease HTRA2, mitochondrial (Homo sapiens). Description: Inhibition of MBP-fused Omi/HtrA2 (134 to 458 residues) (unknown origin) expressed in TB1 Escherichia coli at 20 to 100 uM pre-incubated for 15 mins before FITC-labeled dephosphorylated casein substrate addition and measured every 5 mins for 30 mins by fluorescence assay.
For data set [3] the target is unchanged. Description: Inhibition of MBP-fused Omi/HtrA2 (134 to 458 residues) (unknown origin) expressed in TB1 Escherichia coli at 20 uM pre-incubated for 15 mins before FITC-labeled dephosphorylated casein substrate addition and measured every 5 mins for 30 mins by fluorescence assay relative to control.
Data set [4] shares this target. Description: Inhibition of His-tagged Omi/HtrA2 (134 to 458 residues) (unknown origin) expressed in TB1 Escherichia coli at 10 to 100 uM pre-incubated for 10 mins before un-labeled beta-casein substrate addition and measured after 30 mins by Coomassie blue staining based SDS-PAGE analysis.
For data set [5], the system named is Fibroblast. The data set is classed as cell-based. The settings on record: mouse, 36 h, 25 µM.
Data set [6] in a line: Inhibition of bovine trypsin incubated for 20 mins by fluorescence based assay. Also noted: species or system Bos taurus.
Data set [7] can be described thus: Drug localization in cytoplasm of human HeLa cells at 20 to 50 uM incubated for 2 hrs by confocal laser-scanning microscopy. Format: ADME, subcellular.
Data set [8] concerns the target T1, Serine protease HTRA2, mitochondrial (Homo sapiens). Briefly: Inhibition of MBP-fused Omi/HtrA2 (134 to 458 residues) (unknown origin) expressed in TB1 Escherichia coli at 10 uM pre-incubated for 15 mins before higher 2 times FITC-labeled dephosphorylated casein substrate addition and measured every 5 mins for 30 mins by fluorescence assay.
The target is the same in data set [9]. Description: Inhibition of His-tagged Omi/HtrA2 (134 to 458 residues) (unknown origin) expressed in TB1 Escherichia coli at 80 uM pre-incubated for 10 mins before un-labeled beta-casein substrate addition and measured after 30 mins by Coomassie blue staining based SDS-PAGE analysis.
A short description of data set [10]: Inhibition of canine F10a using fluorogenic substrate incubated for 20 mins by fluorescence based assay. Also noted: species or system Canis lupus familiaris.
The test system of data set [11] is Fibroblast. The data set is classed as cell-based. To be noted: mouse, 36 h.
Data set [12] deals with T1, Serine protease HTRA2, mitochondrial (Homo sapiens). Briefly: Inhibition of His-tagged Omi/HtrA2 (134 to 458 residues) (unknown origin) expressed in TB1 Escherichia coli at 10 to 50 uM pre-incubated for 15 mins before FITC-labeled dephosphorylated casein substrate addition and measured every 5 mins for 30 mins by fluorescence assay.
For data set [13], the system named is Fibroblast. Format: cell-based. To be noted: mouse, 36 h, 25 µM. This is another data set of the same source.
Another data set is filed under the species Canis lupus familiaris. Description: Inhibition of cisplatin-induced apoptosis in dog MPT cells at 20 to 50 uM pre-incubated for 20 mins before cisplatin challenge for 6 hrs by annexin-V staining based flow cytometry. The data set is classed as functional, cell-based. (Flow cytometry measures light scatter and fluorescence of single cells or particles in a stream.)

The target of data set [14] is T1, Serine protease HTRA2, mitochondrial (Homo sapiens).
Data set [15] has as its target Serine protease HTRA1 (Homo sapiens) (UniProt Q92743). Briefly: Inhibition of His-tagged L56/HtrA1 (140 to 480 residues) (unknown origin) expressed in TB1 Escherichia coli at 10 to 50 uM pre-incubated for 15 mins before FITC-labeled dephosphorylated casein substrate addition and measured every 5 mins for 30 mins by fluorescence assay.

Serine protease HTRA1 (Homo sapiens), sequence (Q92743 whole entry, the tested form may be a part): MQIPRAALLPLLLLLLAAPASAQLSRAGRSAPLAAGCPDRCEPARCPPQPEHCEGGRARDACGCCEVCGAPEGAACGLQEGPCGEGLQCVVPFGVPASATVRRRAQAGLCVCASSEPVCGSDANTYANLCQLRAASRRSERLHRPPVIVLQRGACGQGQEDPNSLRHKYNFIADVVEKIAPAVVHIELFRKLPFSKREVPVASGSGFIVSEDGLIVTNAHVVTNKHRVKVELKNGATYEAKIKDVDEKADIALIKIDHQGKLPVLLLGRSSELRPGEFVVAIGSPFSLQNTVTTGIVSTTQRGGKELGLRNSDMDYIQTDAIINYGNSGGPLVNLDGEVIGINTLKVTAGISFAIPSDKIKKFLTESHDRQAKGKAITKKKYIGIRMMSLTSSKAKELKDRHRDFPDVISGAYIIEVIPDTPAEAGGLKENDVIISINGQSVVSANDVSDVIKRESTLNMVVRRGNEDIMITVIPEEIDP

The inhibition is the share of the control response that was lost under treatment. Regarding `COc1ccc(-c2ccc(C=C3C(=O)N(c4ccccc4)C(=S)N(c4ccccc4)C3=O)o2)cc1Cl`, the inhibition entry in data set [1] is “inactive”. Moreover, the inhibition result in data set [2] was “Active”.
For `O=C(O)c1cccc(-c2ccc(C=C3C(=O)N(c4ccccc4)C(=S)N(c4ccccc4)C3=O)o2)c1`, in that order: “inactive” and “Active”.
Turning to `Cc1ccc([N+](=O)[O-])cc1-c1ccc(C=C2C(=O)N(c3ccccc3)C(=S)N(c3ccccc3)C2=O)o1`, in [3], the inhibition worked out at 58%. In addition, the inhibition result in data set [1] was “inactive”. The inhibition entry in [2] is “Active”.
One may read the IC50 as the point on the concentration scale where inhibition reaches its midpoint. A high value points to lower potency. `Cc1cccc([N+](=O)[O-])c1-c1ccc(C=C2C(=O)N(c3ccccc3)C(=S)N(c3ccccc3)C2=O)o1`: the inhibition was > 78% in [3]; “Dose-dependent effect” in data set [4]; 100% in [9]; “Dose-dependent effect” in the data set listed under Canis lupus familiaris; < 40% in data set [14]. The Activity result in the data set on Fibroblast [5], in the data set with Fibroblast [11] and in the data set with Fibroblast [13] was “Non-Toxic” throughout. Also, the half-inhibitory concentration (IC50) in data set [6] was > 500 µM; in [10], 360 to 430 µM. Moreover, the inhibition entry in data set [1], in data set [8] and in data set [12] was “inactive” throughout. Further, the Drug uptake entry in data set [7] is on record as “Active”. The inhibition result in data set [15] and in data set [2] was “Active” each time.
